# Results: patent US20100267637A1, “TREATMENT OF MELANOMA WITH ALPHA THYMOSIN PEPTIDES IN COMBINATION WITH A KINASE INHIBITOR” (SciClone Pharmaceuticals, Inc., priority 2007, published 2010)
# Where no end group is shown, it is not given here.
# Test system: murine B16 melanoma cells
# Test: Anti-tumor effect: tumor size / tumor volume in mice bearing subcutaneous B16 melanoma
# Assay type: in vivo, C57BL/6 mice
# Conditions: for Tumor Volume (cm^3) (Mean ± SD): group mean; for PI (TV), percent inhibition of tumor volume: vs vehicle; for Tumor volumes on Day 15: Length × Width × Width/2
# Description: The toxic effects of the dosing regimens were also monitored. […] Meanwhile 9H10 was given in two groups via i.p. on Day 3, 6 and 9. […] Tumor volume and body weight were measured every three days, and tumor weights were measured on Day 16 at the end of the study.
# As per aseptic tissue culture procedures, one vial of B16 melanoma cells was removed from the liquid nitrogen stock, and placed into a 37° C. water bath. Gentle swirling was conducted until the content of the vial was thawed. Using tissue culture/sterile procedures, the cells were immediately centrifuged with a TD5A-WS centrifuge at 1000 rpm, 20-25° C., 5 min. After centrifugation, the cells were suspended in 0.1 to 0.5 mL normal saline (NS) and subcutaneously injected into 10 mice (0.1 mL/mouse, about 1×10^6 cells). After 7-10 days, when the tumor diameter was approximately 1 cm, the animals were euthanized with CO2 overdose and the tumors excised. The procedure was repeated with 20 mice to generate a sufficient number of B16 melanoma cells with adequate transplantability.
# On the day of tumor implantation, approximately 1×10^6 cells in 0.1 mL were subcutaneously injected on the right axillary area of each mouse. The day of tumor implantation was defined as Day 0.
# On Day 3, the animals were randomly assigned into nine different weight-matched and tumor-size-matched groups. Dosing was started on Day 3 using the regimen according to Table 2.
# From Day 1 to Day 15, mortality and moribundity were checked twice daily, the body weights were recorded once every 3 days, and tumors were measured using a caliper once every 3 days. At the end of the study (Day 16), the animals were euthanized by CO2 asphyxiation, and the tumors were excised and weighed.
# Based on the tumor size, the tumor volume (TV) was calculated with the formula: [TV=(Length×Width×Width)/2]. And the percent inhibition (PI) of TV (PITV) was calculated according to the equation below:
# PITV(%)=(TV vehicle−TVdrug treated)/TV vehicle×100
# Inter-group comparison was performed in terms of tumor volume, tumor weight and body weight, using a student's t test. P values of less than 0.05 were considered to be statistically significant.
substance,measurement,setting,value
"Thymosin Alpha-1 (Ac-SDAAVDTSSEITTKDLKEKKEVVEEAEN; ends and bridges not checked; UniProt P06454 2-29, looked up) [TA-1, 28 amino acid peptide, immunomodulator; test article (SciClone), 6 mg/kg s.c. daily]",Tumor measurement L (length),"Day 9, animal M2",0.20 cm
same,Tumor measurement W (width),"Day 9, animal M2",0.20 cm
same,Tumor volume,"Day 9, animal M2",0.0040 cm^3
same,Tumor measurement L (length),"Day 9, animal M3",0.50 cm
same,Tumor measurement W (width),"Day 9, animal M3",0.50 cm
same,Tumor volume,"Day 9, animal M3",0.0625 cm^3
same,Tumor measurement L (length),"Day 9, animal M4",0.20 cm
same,Tumor measurement W (width),"Day 9, animal M4",0.20 cm
same,Tumor volume,"Day 9, animal M4",0.0040 cm^3
same,Tumor measurement L (length),"Day 9, animal M5",0.30 cm
same,Tumor measurement W (width),"Day 9, animal M5",0.30 cm
same,Tumor volume,"Day 9, animal M5",0.0135 cm^3
same,Tumor Volume (cm^3) (Mean ± SD),Day 9,0.009 ± 0.0192 cm^3
same,"PI (TV), percent inhibition of tumor volume",Day 9,56.73%
same,Tumor volume,"Day 12, animal F1",0.0625 cm^3
same,"Tumor measurements on Day 12, L","Day 12, animal F1",0.50 cm
same,"Tumor measurements on Day 12, W","Day 12, animal F1",0.50 cm
same,Tumor volume,"Day 12, animal F2",0.0625 cm^3
same,"Tumor measurements on Day 12, L","Day 12, animal F2",0.50 cm
same,"Tumor measurements on Day 12, W","Day 12, animal F2",0.50 cm
same,Tumor volume,"Day 12, animal F3",0.0625 cm^3
same,"Tumor measurements on Day 12, L","Day 12, animal F3",0.50 cm
same,"Tumor measurements on Day 12, W","Day 12, animal F3",0.50 cm
same,Tumor volume,"Day 12, animal F4",0.1715 cm^3
same,"Tumor measurements on Day 12, L","Day 12, animal F4",0.70 cm
same,"Tumor measurements on Day 12, W","Day 12, animal F4",0.70 cm
same,Tumor volume,"Day 12, animal F5",0.0005 cm^3
same,"Tumor measurements on Day 12, L","Day 12, animal F5",0.10 cm
same,"Tumor measurements on Day 12, W","Day 12, animal F5",0.10 cm
same,Tumor volume,"Day 12, animal M1",0.0625 cm^3
same,"Tumor measurements on Day 12, L","Day 12, animal M1",0.50 cm
same,"Tumor measurements on Day 12, W","Day 12, animal M1",0.50 cm
same,Tumor volume,"Day 12, animal M2",0.1715 cm^3
same,"Tumor measurements on Day 12, L","Day 12, animal M2",0.70 cm
same,"Tumor measurements on Day 12, W","Day 12, animal M2",0.70 cm
same,Tumor volume,"Day 12, animal M3",0.3645 cm^3
same,"Tumor measurements on Day 12, L","Day 12, animal M3",0.90 cm
same,"Tumor measurements on Day 12, W","Day 12, animal M3",0.90 cm
same,Tumor volume,"Day 12, animal M4",0.0625 cm^3
same,"Tumor measurements on Day 12, L","Day 12, animal M4",0.50 cm
same,"Tumor measurements on Day 12, W","Day 12, animal M4",0.50 cm
same,Tumor volume,"Day 12, animal M5",0.3645 cm^3
same,"Tumor measurements on Day 12, L","Day 12, animal M5",0.90 cm
same,"Tumor measurements on Day 12, W","Day 12, animal M5",0.90 cm
same,Tumor Volume (cm^3) (Mean ± SD),Day 12,0.139 ± 0.1301 cm^3
same,"PI (TV), percent inhibition of tumor volume",Day 12,59.58%
same,"Tumor measurements on Day 15, L","Day 15, animal F1",0.70 cm
same,Tumor volumes on Day 15,"Day 15, animal F1",0.1715 cm^3
same,"Tumor measurements on Day 15, W","Day 15, animal F1",0.70 cm
same,"Tumor measurements on Day 15, L","Day 15, animal F2",0.70 cm
same,Tumor volumes on Day 15,"Day 15, animal F2",0.1260 cm^3
same,"Tumor measurements on Day 15, W","Day 15, animal F2",0.60 cm
same,"Tumor measurements on Day 15, L","Day 15, animal F3",0.60 cm
same,Tumor volumes on Day 15,"Day 15, animal F3",0.1080 cm^3
same,"Tumor measurements on Day 15, W","Day 15, animal F3",0.60 cm
same,"Tumor measurements on Day 15, L","Day 15, animal F4",1.00 cm
same,Tumor volumes on Day 15,"Day 15, animal F4",0.2450 cm^3
same,"Tumor measurements on Day 15, W","Day 15, animal F4",0.70 cm
same,"Tumor measurements on Day 15, L","Day 15, animal F5",0.30 cm
same,Tumor volumes on Day 15,"Day 15, animal F5",0.0135 cm^3
same,"Tumor measurements on Day 15, W","Day 15, animal F5",0.30 cm
same,"Tumor measurements on Day 15, L","Day 15, animal M1",0.70 cm
same,Tumor volumes on Day 15,"Day 15, animal M1",0.1715 cm^3
same,"Tumor measurements on Day 15, W","Day 15, animal M1",0.70 cm
same,"Tumor measurements on Day 15, L","Day 15, animal M2",1.00 cm
same,Tumor volumes on Day 15,"Day 15, animal M2",0.5000 cm^3
same,"Tumor measurements on Day 15, W","Day 15, animal M2",1.00 cm
same,"Tumor measurements on Day 15, L","Day 15, animal M3",1.00 cm
same,Tumor volumes on Day 15,"Day 15, animal M3",0.5000 cm^3
same,"Tumor measurements on Day 15, W","Day 15, animal M3",1.00 cm
same,"Tumor measurements on Day 15, L","Day 15, animal M4",1.00 cm
same,Tumor volumes on Day 15,"Day 15, animal M4",0.4050 cm^3
same,"Tumor measurements on Day 15, W","Day 15, animal M4",0.90 cm
same,"Tumor measurements on Day 15, L","Day 15, animal M5",1.00 cm
same,Tumor volumes on Day 15,"Day 15, animal M5",0.5000 cm^3
same,"Tumor measurements on Day 15, W","Day 15, animal M5",1.00 cm
same,Tumor Volume (cm^3) (Mean ± SD),Day 15,0.274 ± 0.1855 cm^3
same,"PI (TV), percent inhibition of tumor volume",Day 15,62.57%
same,effect on tumor growth in words,daily dosing Days 3-15,effective against the tumor growth
same,reduction of mean tumor volume in comparison to vehicle control,"throughout the course of the study, 6 mg/kg s.c. daily",50-60%
